Data published in PubChem BioAssay AID248 (DTP/NCI, 2004).
Several values for one entry are separate records, joined by “and”; a condition that tells them apart may be missing. Equal entries are not always repeated. Toxic doses and inconclusive results are not listed. Cut-off read from the data, not from the text of the source: active = T/C of 150% or more; inactive = T/C below 125%.

System: L1210 leukemia ip in BDF1 mice, survival T/C
Assay: NCI In Vivo Anticancer Drug Screen. Data for tumor model L1210 Leukemia (intraperitoneal) in B6D2F1 (BDF1) mice
Details: endpoint: mean survival time, higher = longer survival
How it was run: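 Mice bearing the transplanted tumor received compound or vehicle. Survival of the treated group was divided by that of the vehicle-treated control group to give the ratio.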

[1] = dose: 100.0 mg/kg/injection, schedule: Q04DX003 (ip), vehicle: saline with Tween-80
[2] = dose: 200.0 mg/kg/injection, schedule: Q04DX003 (ip), vehicle: saline with Tween-80
[3] = dose: 400.0 mg/kg/injection, schedule: Q04DX003 (ip), vehicle: saline with Tween-80
[4] = dose: 25.0 mg/kg/injection, schedule: Q04DX003 (ip), vehicle: Klucel (hydroxypropylcellulose) (HPC)
[5] = dose: 50.0 mg/kg/injection, schedule: Q04DX003 (ip), vehicle: Klucel (hydroxypropylcellulose) (HPC)
[6] = dose: 100.0 mg/kg/injection, schedule: Q04DX003 (ip), vehicle: Klucel (hydroxypropylcellulose) (HPC)
[7] = dose: 100.0 mg/kg/injection, schedule: Q01DX001 (ip), vehicle: carboxymethylcellulose (CMC)
[8] = dose: 200.0 mg/kg/injection, schedule: Q01DX001 (ip), vehicle: carboxymethylcellulose (CMC)
[9] = dose: 400.0 mg/kg/injection, schedule: Q01DX001 (ip), vehicle: carboxymethylcellulose (CMC)
[10] = dose: 100.0 mg/kg/injection, schedule: Q01DX001 (ip), vehicle: Klucel (hydroxypropylcellulose) (HPC)
[11] = dose: 200.0 mg/kg/injection, schedule: Q01DX001 (ip), vehicle: Klucel (hydroxypropylcellulose) (HPC)
[12] = dose: 200.0 mg/kg/injection, schedule: Q04DX003 (ip), vehicle: Klucel (hydroxypropylcellulose) (HPC)
[13] = dose: 400.0 mg/kg/injection, schedule: Q01DX001 (ip), vehicle: Klucel (hydroxypropylcellulose) (HPC)
[14] = dose: 400.0 mg/kg/injection, schedule: Q04DX003 (ip), vehicle: Klucel (hydroxypropylcellulose) (HPC)
[15] = dose: 100.0 mg/kg/injection, schedule: Q01DX009 (ip), vehicle: saline with Tween-80
[16] = dose: 200.0 mg/kg/injection, schedule: Q01DX009 (ip), vehicle: saline with Tween-80
[17] = dose: 400.0 mg/kg/injection, schedule: Q01DX009 (ip), vehicle: saline with Tween-80

Measured: T/C

C=C(C)COc1cc(C=NCCCC)c(C)cc1C
inactive: [1] 96 % of control | [2] 102 % of control | [3] 96 % of control

O=S1(=O)C(c2ccccc2)CC1c1ccccc1 (stereo not drawn)
inactive: dose: 75.0 mg/kg/injection, schedule: Q04DX003 (ip), vehicle: Klucel (hydroxypropylcellulose) (HPC) 107 % of control | dose: 150.0 mg/kg/injection, schedule: Q04DX003 (ip), vehicle: Klucel (hydroxypropylcellulose) (HPC) 104 % of control | dose: 300.0 mg/kg/injection, schedule: Q04DX003 (ip), vehicle: Klucel (hydroxypropylcellulose) (HPC) 96 % of control

COC(=O)c1cc(C)[nH]c(=O)c1CN
inactive: dose: 75.0 mg/kg/injection, schedule: Q01DX001 (ip), vehicle: water 104 % of control | dose: 150.0 mg/kg/injection, schedule: Q01DX001 (ip), vehicle: water 107 % of control

Cc1c(Cl)cccc1NC(=O)Nc1ccccc1
inactive: dose: 25.0 mg/kg/injection, schedule: Q01DX009 (ip), vehicle: DMSO 95 % of control | dose: 50.0 mg/kg/injection, schedule: Q01DX009 (ip), vehicle: DMSO 95 % of control | dose: 100.0 mg/kg/injection, schedule: Q01DX009 (ip), vehicle: DMSO 88 % of control | dose: 100.0 mg/kg/injection, schedule: Q04DX003 (sc), vehicle: olive oil, sesame oil, peanut oil 95 % of control | dose: 200.0 mg/kg/injection, schedule: Q04DX003 (sc), vehicle: olive oil, sesame oil, peanut oil 99 % of control | dose: 400.0 mg/kg/injection, schedule: Q04DX003 (sc), vehicle: olive oil, sesame oil, peanut oil 114 % of control

Cn1c(=N)sc2ccc3ccccc3c21
inactive: dose: 12.5 mg/kg/injection, schedule: Q04DX003 (ip), vehicle: Klucel (hydroxypropylcellulose) (HPC) 90 % of control | [4] 91 % of control | [5] 98 % of control | [6] 86 % of control

C[n+]1ccsn1
inactive: [7] 95 % of control | [8] 93 % of control | [9] 95 % of control

C1=Nc2ccccc2/C1=C/c1cccc2ccccc12
inactive: dose: 100.0 mg/kg/injection, schedule: Q04DX002 (ip), vehicle: saline with Tween-80 98 % of control | dose: 200.0 mg/kg/injection, schedule: Q04DX002 (ip), vehicle: saline with Tween-80 101 % of control

O=C(O)C(=O)c1c(O)n(-c2ccccc2)c2ccccc12
inactive: dose: 25.0 mg/kg/injection, schedule: Q01DX001 (ip), vehicle: Klucel (hydroxypropylcellulose) (HPC) 95 % of control | dose: 50.0 mg/kg/injection, schedule: Q01DX001 (ip), vehicle: Klucel (hydroxypropylcellulose) (HPC) 95 % of control | [10] 93 % of control and 92 % of control

O=C1C(Cl)=C(Cl)C2(Cl)C1(Cl)C1(Cl)C(=O)C(Cl)=C(Cl)C12Cl (stereo not drawn)
inactive: [10] 99 % of control | [6] 104 % of control | [11] 97 % of control | [12] 98 % of control | [13] 94 % of control | [14] 96 % of control

CCN(c1ccc(Br)cc1)c1ccc(Br)cc1
inactive: [7] 100 % of control | [8] 94 % of control | [9] 105 % of control

COC(=O)CSc1nc2ccccc2[nH]1
inactive: dose: 100.0 mg/kg/injection, schedule: Q04DX002 (ip), vehicle: Klucel (hydroxypropylcellulose) (HPC) 104 % of control | dose: 200.0 mg/kg/injection, schedule: Q04DX002 (ip), vehicle: Klucel (hydroxypropylcellulose) (HPC) 100 % of control | dose: 400.0 mg/kg/injection, schedule: Q04DX002 (ip), vehicle: Klucel (hydroxypropylcellulose) (HPC) 100 % of control

O=CNNc1ccccc1
inactive: dose: 75.0 mg/kg/injection, schedule: Q01DX001 (ip), vehicle: acetone 98 % of control | [6] 106 % of control | dose: 150.0 mg/kg/injection, schedule: Q01DX001 (ip), vehicle: acetone 100 % of control | [12] 95 % of control | dose: 300.0 mg/kg/injection, schedule: Q01DX001 (ip), vehicle: acetone 96 % of control

CCOc1ccccc1N1C(=O)C=CC1=O
inactive: dose: 12.5 mg/kg/injection, schedule: Q04DX002 (ip), vehicle: saline with Tween-80 96 % of control | dose: 25.0 mg/kg/injection, schedule: Q04DX002 (ip), vehicle: saline with Tween-80 109 % of control

Cc1ccc(C2(C#N)CC2)cc1
inactive: [15] 98 % of control | [1] 108 % of control | [16] 98 % of control | [2] 104 % of control | [17] 112 % of control | [3] 104 % of control

Cc1cc(-c2ccccc2)c(-c2ccccn2)c2ccccc12
inactive: [6] 96 % of control | [12] 91 % of control | [14] 86 % of control

[Cu+2].[NH-]C(CC(N)=O)C(=O)O.[NH-]C(CC(N)=O)C(=O)O (stereo not drawn)
inactive: dose: 12.5 mg/kg/injection, schedule: Q01DX009 (ip), vehicle: saline 107 % of control | dose: 12.5 mg/kg/injection, schedule: Q04DX003 (ip), vehicle: saline 92 % of control | dose: 25.0 mg/kg/injection, schedule: Q01DX009 (ip), vehicle: saline 98 % of control | dose: 25.0 mg/kg/injection, schedule: Q04DX003 (ip), vehicle: saline 94 % of control | dose: 50.0 mg/kg/injection, schedule: Q04DX003 (ip), vehicle: saline 87 % of control

Cc1ccc([N+](=O)[O-])cc1NC(=O)COc1cc(Cl)c(Cl)cc1Cl
inactive: [15] 89 % of control | [16] 94 % of control | [17] 98 % of control

CCOC(=O)c1c[nH]c2nc(SC)[nH]c(=O)c2c1=O
inactive: dose: 25.0 mg/kg/injection, schedule: Q01DX009 (ip), vehicle: Klucel (hydroxypropylcellulose) (HPC) 86 % of control | [4] 104 % of control | dose: 50.0 mg/kg/injection, schedule: Q01DX009 (ip), vehicle: Klucel (hydroxypropylcellulose) (HPC) 93 % of control | [5] 103 % of control | [10] 102 % of control | dose: 100.0 mg/kg/injection, schedule: Q01DX009 (ip), vehicle: Klucel (hydroxypropylcellulose) (HPC) 101 % of control | [6] 101 % of control | [11] 98 % of control | [13] 107 % of control

Cc1cc(Nc2ncnc(Cl)c2N)ccc1N
inactive: [7] 93 % of control | [8] 98 % of control | [9] 96 % of control

Nc1ccc2c(c1)/C(=N/O)c1ccccc1-2
inactive: [7] 105 % of control | [8] 97 % of control | [9] 100 % of control

NC(N1CC1)(C(F)(F)F)C(F)(F)F
inactive: dose: 20.0 mg/kg/injection, schedule: Q01DX001 (ip), vehicle: saline 100 % of control | dose: 20.0 mg/kg/injection, schedule: Q04DX003 (ip), vehicle: saline 102 % of control | dose: 40.0 mg/kg/injection, schedule: Q01DX001 (ip), vehicle: saline 111 % of control | dose: 40.0 mg/kg/injection, schedule: Q04DX003 (ip), vehicle: saline 102 % of control | dose: 80.0 mg/kg/injection, schedule: Q01DX001 (ip), vehicle: saline 102 % of control | dose: 80.0 mg/kg/injection, schedule: Q04DX003 (ip), vehicle: saline 94 % of control
